The test system of assay [1] is Staphylococcus aureus ATCC29213. Put plainly: Minimum Inhibitory Concentration (MIC) testing, broth microdilution, Staphylococcus aureus. The class given is cell-based. An outline of the steps:
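Broth microdilution per NCCLS M7-A5 in Mueller Hinton broth, with compound in 1.6% DMSO and inoculum at OD 0.09 diluted 1:100. Plates incubated 16–20 h at 37°C. MIC is the lowest concentration with no visible growth; scored A ≤8, B 16–64, C >64 μg/ml.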
For orientation: In broth dilution the organism is exposed to a series of concentrations in liquid medium.

In assay [2] the test system is Bacillus subtilis 168CA. Put plainly: Minimum Inhibitory Concentration (MIC) testing, broth microdilution, Bacillus subtilis. The class given is cell-based. To be noted: read-out: Bacillus subtilis MICs Activity. An outline of the steps:
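MICs were scored A (≦8 μg/ml), B (16–64 μg/ml) or C (>64 μg/ml), read as the lowest concentration preventing visible growth by eye and spectrophotometry. Plates incubated overnight (16–20 h) at 37 °C, inoculum OD 0.09 diluted 1:100 in 2× broth, per NCCLS guidelines.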

The mark [3] stands for this setting: Staphylococcus aureus ATCC29213, read-out: Staphylococcus aureus MICs Activity.

Converted amounts (≈) assume the structure as drawn. Read-outs that look alike come from different tables or passages of the source. Bounds are passed on as bounds.

Turning to `COc1ccc(-c2nc(COc3ccc(F)c(C(N)=O)c3F)sc2-c2ccccn2)cc1` [Example 125, 2,6-Difluoro-3-[4-(4-methoxy-phenyl)-5-pyridin-2-yl-thiazol-2-ylmethoxy]-benzamide], the MIC in assay [1] (setting [3]) and in assay [2] (Bacillus subtilis 168CA) was less than 8 µg/mL throughout.

On to `NC(=O)c1c(F)ccc(OCc2noc(-c3ccccc3)n2)c1F` [Example 239, 2,6-Difluoro-3-[(5-phenyl-1,2,4-oxadiazol-3-yl)methoxy]benzenecarboxamide], for which the MIC in assay [1] (setting [3]) and in assay [2] (Bacillus subtilis 168CA) was 16 to 64 µg/mL (≈ 48.3 to 193 µM) throughout.

Regarding `NC(=O)c1c(F)ccc(OCc2cccs2)c1F` [Example 186, 2,6-Difluoro-3-(2-thienylmethoxy)benzenecarboxamide], the MIC was 16 to 64 µg/mL (≈ 59.4 to 238 µM) in assay [1] (setting [3]) and less than 8 µg/mL in assay [2] (Bacillus subtilis 168CA).

In the case of `NC(=O)c1c(F)ccc(OCc2csc(-c3ccc(Cl)cc3)n2)c1F` [Example 306, 3-[2-(4-Chloro-phenyl)-thiazol-4-ylmethoxy]-2,6-difluoro-benzamide], the MIC in assay [1] (setting [3]) and in assay [2] (Bacillus subtilis 168CA) was less than 8 µg/mL each time.

`Cc1ccc2sc(COc3ccc(F)c(C(N)=O)c3F)cc2c1` [Example 205, 2,6-Difluoro-3-[(5-methyl-1-benzothiophen-2-yl)methoxy]benzenecarboxamide]: the MIC in assay [1] (setting [3]) and in assay [2] (Bacillus subtilis 168CA) was less than 8 µg/mL each time.

`NC(=O)c1cccc(OCc2nc3cc(Cl)ccc3s2)c1F` [Example 219, 3-[(5-Chloro-1,3-benzothiazol-2-yl)methoxy]-2-fluorobenzenecarboxamide]: the MIC in assay [1] (setting [3]) and in assay [2] (Bacillus subtilis 168CA) was less than 8 µg/mL each time.

Consider `NC(=O)c1c(F)ccc(OCc2noc(C=Cc3ccccc3)n2)c1F` [Example 149, 2,6-Difluoro-3-(5-styryl-[1,2,4]oxadiazol-3-ylmethoxy)-benzamide], for which the results for the MIC in assay [1] (setting [3]) and in assay [2] (Bacillus subtilis 168CA) were 16 to 64 µg/mL (≈ 44.8 to 179 µM) and less than 8 µg/mL, respectively.

`COc1cccc(-c2ccc3sc(COc4ccc(F)c(C(N)=O)c4F)nc3c2)c1` [Example 143, 2,6-Difluoro-3-[5-(3-methoxy-phenyl)-benzothiazol-2-ylmethoxy]-benzamide]: the values for the MIC in assay [1] (setting [3]) and in assay [2] (Bacillus subtilis 168CA) were less than 8 µg/mL and more than 64 µg/mL, respectively.

Consider `CCc1ccc(-c2noc(COc3ccc(F)c(C(N)=O)c3F)n2)cc1` [Example 250, 3-[3-(4-Ethylphenyl)-1,2,4-oxadiazol-5-yl]methoxy-2,6-difluorobenzenecarboxamide], for which the MIC in assay [1] (setting [3]) and in assay [2] (Bacillus subtilis 168CA) was less than 8 µg/mL each time.

Turning to `COc1ccc(-c2nc(COc3ccc(F)c(C(N)=O)c3F)sc2-c2cncs2)cc1` [Example 164, 2,6-Difluoro-3-[4-(4-methoxy-phenyl)-[5,5′]bithiazolyl-2-ylmethoxy]-benzamide], the MIC in assay [1] (Staphylococcus aureus, ATCC29213, read-out: Staphylococcus aureus MICs Activity) is less than 8 µg/mL; in assay [2] (Bacillus subtilis, 168CA), less than 8 µg/mL.

As to `CCCCCC#CCCOc1cccc(C(N)=O)c1` [Example 51, 3-(3-Nonynyloxy)benzenecarboxamide], the MIC in assay [1] (setting [3]) is 16 to 64 µg/mL (≈ 61.7 to 247 µM); in assay [2] (Bacillus subtilis 168CA), less than 8 µg/mL.

Regarding `CCCCCC#CCOc1cccc(C(N)=O)c1` [Example 31, 3-(2-Octynyloxy)benzenecarboxamide], the MIC in assay [1] (setting [3]) and in assay [2] (Bacillus subtilis 168CA) was 16 to 64 µg/mL (≈ 65.2 to 261 µM) each time.

`CCCCCCCCCOc1cccc(C(N)=O)c1` [Example 1, 3-Nonyloxy-benzenecarboxamide]: the MIC in assay [1] (setting [3]) and in assay [2] (Bacillus subtilis 168CA) was less than 8 µg/mL throughout.

With `NC(=O)c1c(F)ccc(OCc2nc3cc([N+](=O)[O-])ccc3o2)c1F` [Example 214, 2,6-Difluoro-3-[(5-nitro-1,3-benzoxazol-2-yl)methoxy]benzenecarboxamide], the MIC in assay [1] (setting [3]) and in assay [2] (Bacillus subtilis 168CA) was 16 to 64 µg/mL (≈ 45.8 to 183 µM) throughout.

As to `CC(C)(C)c1ccc2oc(COc3ccc(F)c(C(N)=O)c3F)nc2c1` [Example 213, 3-[5-(tert-Butyl)-1,3-benzoxazol-2-yl]methoxy-2,6-difluorobenzenecarboxamide], the values for the MIC in assay [1] (setting [3]) and in assay [2] (Bacillus subtilis 168CA) were 16 to 64 µg/mL (≈ 44.4 to 178 µM) and less than 8 µg/mL, respectively.

As for `Cc1nc(COc2ccc(F)c(C(N)=O)c2F)cs1` [Example 190, 2,6-Difluoro-3-[(2-methyl-1,3-thiazol-4-yl)methoxy]benzenecarboxamide], the MIC in assay [1] (setting [3]) and in assay [2] (Bacillus subtilis 168CA) was 16 to 64 µg/mL (≈ 56.3 to 225 µM) each time.

Source of the values: patent US8088791B2, “Antibacterial agents” (Biots Scientific Management Pty Ltd, priority 2006, dated 2012).
